Measurements as given in patent US12298319B2, “Method for measuring alpha value of muscarinic M1 receptor positive allosteric modulators” (Takeda Pharmaceutical Company Limited, priority 2017, dated 2025).
One block for each compound: values may come before it.

Tests used:
[1] = test system: Arc mRNA expression in mouse hippocampus; assay: Arc mRNA expression in hippocampus (RT-PCR, PD marker); format: in vivo; details: 90 min after treatment
Method: For in vivo pharmacodynamics (PD) marker analysis, mice were sacrificed by decapitation at 90 min after administration of Compound A or Compound B. Hippocampal tissues were isolated from the brain. These tissues were stored at -80° C. until RNA extraction. Total RNA from individual tissues was extracted using QIAzol Lysis Reagent and the RNeasy kit (Quiagen, Hilden, Germany) following the manufacturer's instruction. RT-PCR was carried out using ABI PRISM 7900HT sequence detection system (Life Technologies, Bedford, MA) and TagMan reagents (Eurogentec, Seraing, Belgium). RNA quantities were normalized using glyceraldehyde-3-phosphate dehydrogenase (GAPDH) mRNA transcripts according to manufacturer's instruction. The following primers were used for mouse Arc analysis: forward primer, [NT] ID NO:3); reverse primer, [NT] ID NO:4), TagMan probe, [NT] ID NO:5). The primers used for mouse Gapdh analysis were TagMan Rodent GAPDH Control Reagent, VIC probe, purchased from ABI (Applied biosystems-Life Technologies, Waltham, MA).

[2] = test system: rats; assay: Assessment of cholinergic side effects in rats; details: SD, rat, in vivo, po, 240 min
Method: SD Rats were placed individually into observation cages and acclimated for at least 1 h. […] The severity of diarrhea was scored as follows: 0, normal pellets; 1, wet but formed feces; 2, swollen or mucous feces; 3, severe watery diarrhea. For diarrhea, the number of rats and mice, in which more than or equal to 2 was scored, was counted. For fasciculation, the number of rats with marked fasciculation of both the upper and lower limbs was counted. For lacrimation, the number of rats, in which moderate to marked discharge (severer lacrimation than fluid around eyes) was induced, was counted. For salivation, the number of rats with severe salivation, but not just noticeably wet around mouth, was induced was counted. The maximum score during the observation was adopted.
(§1) For diarrhea, the number of rats scored more than or equal to 2 was counted. For fasciculation, the number of rats with marked fasciculation of both the upper and lower limbs was counted. For lacrimation, the number of rats in which moderate to marked discharge (severer lacrimation than fluid around eyes) was counted. For salivation, the number of rats with severe salivation, but not just noticeably wet around mouth, was counted. The maximum score during the observation was adopted. Data were presented as the number of incidence per total rats.
as §1, with “in which loose” for “scored more than”, “mucous stool, or diarrhea was induced” for “equal to 2”, “(severe” for “(severer”, “eyes) was caused” for “eyes)”, “mouth” for “mouth,”

[3] = target: M3R (Homo sapiens, UniProt P20309); assay: Ca2+ flux assay in CHO-K1 cells expressing human M3R; format: cell-based; design: expressed in transfected cells; host or cells: CHO-K1; details: read-out: IP for M3R
[4] = test system: IP1 production in the hippocampus; assay: In vivo IP1 assay, hippocampus of wild-type and M1R KO mice; design: species or system mouse
From the text: Hippocampus was isolated from the brain.

[5] = test system: isolated mouse ileum; assay: In vitro Magnus method, spontaneous ileum motility; details: cumulative concentrations
Method: After overnight fasting, mice were sacrificed. The ileum was quickly dissected out and suspended in ice-cold Krebs solution with the following composition (in mM): NaCl, 120.7; KCl, 5.9; CaCl2, 2.5; MgCl2, 1.2; NaHCO3, 15.5; NaH2PO4, 1.2; and glucose, 11.5. Longitudinal segments of ileum (10-15 mm long) were detached of mesentery and adipose tissue, and mounted in organ baths containing 10 mL of Krebs solution aerated with 95% O2/5% CO2. Bath temperature was maintained at 37° C. The isolated ileum was given a passive load of 0.5 g. The contractile response of the isolated ileum was continuously recorded with isometric transducer (MLT050/A, ADInstruments, New South Wales, Australia) and recorder (PowerLab 8/30 ML870 and Octal Bridge Amp ML228, ADInstruments). […]
The contraction was measured as the maximum strength from the baseline. The effects of experimental substances on the maximum contraction were measured. […] The effect of each concentration of the compounds on ileum spontaneous contraction induced was calculated from the average value of 6 responses of the maximum strength. Then the ileum contractile response was expressed as a ratio of the mean maximum contraction to that obtained with the pre-treated DMSO (solvent). […] Due to very small size of relaxations, the effects of the compounds on them was not be analyzed.

Sequence of M3R (P20309 whole entry): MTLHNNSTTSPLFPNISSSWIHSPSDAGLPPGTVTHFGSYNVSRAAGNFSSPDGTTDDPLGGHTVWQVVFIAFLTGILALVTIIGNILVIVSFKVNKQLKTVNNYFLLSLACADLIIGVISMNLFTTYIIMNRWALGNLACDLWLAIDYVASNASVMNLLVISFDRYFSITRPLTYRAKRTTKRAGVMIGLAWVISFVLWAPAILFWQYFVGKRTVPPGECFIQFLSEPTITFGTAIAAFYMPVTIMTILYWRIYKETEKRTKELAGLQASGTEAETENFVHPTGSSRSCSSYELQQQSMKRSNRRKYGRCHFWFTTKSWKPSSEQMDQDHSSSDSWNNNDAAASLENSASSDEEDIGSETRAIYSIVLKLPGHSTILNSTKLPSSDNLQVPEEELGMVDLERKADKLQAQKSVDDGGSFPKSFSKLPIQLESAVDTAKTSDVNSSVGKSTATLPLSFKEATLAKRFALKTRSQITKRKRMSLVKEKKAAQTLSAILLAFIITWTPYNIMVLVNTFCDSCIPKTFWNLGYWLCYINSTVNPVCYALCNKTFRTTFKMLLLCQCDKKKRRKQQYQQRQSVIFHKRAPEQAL

Compound: Cn1ccc(-c2ccc(CN3Cc4cccc(O[C@H]5CCCC[C@@H]5O)c4C3=O)cc2)n1 [Compound A, 7-(((1S,2S)-2-hydroxycyclohexyl)oxy)-2-(4-(1-methyl-1H-pyrazol-3-yl)benzyl)isoindolin-1-one]
Arc mRNA expression level in mouse hippocampus ([1]; 30 mg/kg p.o.): significant increase
Arc mRNA expression level in mouse hippocampus ([1]; 3-30 mg/kg p.o.): enhanced the expression level of Arc mRNA in a dose-dependent manner

Compound: Cn1cc(-c2ccc(CN3Cc4cccc(Oc5c(F)cccc5C#N)c4C3=O)cc2)cn1 [Compound B, 3-fluoro-2-((2-(4-(1-methyl-1H-pyrazol-4-yl)benzyl)-3-oxo-2,3-dihydro-1H-isoindol-4-yl)oxy)benzonitrile]
increase in Arc mRNA expression level in mouse hippocampus ([1]; 10-100 mg/kg p.o.): about 2 fold

Compound: Cn1cc(-c2ccc(Cc3cc4c(=O)n([C@H]5CCCC[C@@H]5O)cnc4c4ccccc34)cn2)cn1 [Compound C, 3-((1S,2S)-2-hydroxycyclohexyl)-6-((6-(1-methyl-1H-pyrazol-4-yl)pyridin-3-yl)methyl)benzo[h]quinazoline-4(3H)-one, reference compound]
Diarrhea ([2]; 0.01 mg/kg): 0/6 (0%)
Fasciculation ([2]; 0.01 mg/kg): 0/6 (0%)
Lacrimation ([2]; 0.01 mg/kg): 0/6 (0%)
Myosis ([2]; 0.01 mg/kg): 0/6 (0%)
Salivation ([2]; 0.01 mg/kg): 0/6 (0%)
Diarrhea ([2]; 0.03 mg/kg): 0/6 (0%)
Fasciculation ([2]; 0.03 mg/kg): 0/6 (0%)
Lacrimation ([2]; 0.03 mg/kg): 0/6 (0%)
Myosis ([2]; 0.03 mg/kg): 0/6 (0%)
Salivation ([2]; 0.03 mg/kg): 0/6 (0%)
Diarrhea ([2]; 0.1 mg/kg): 3/6 (50%)
Fasciculation ([2]; 0.1 mg/kg): 0/6 (0%)
Lacrimation ([2]; 0.1 mg/kg): 0/6 (0%)
Myosis ([2]; 0.1 mg/kg): 0/6 (0%)
Salivation ([2]; 0.1 mg/kg): 0/6 (0%)
Diarrhea ([2]; 0.3 mg/kg): 4/6 (67%)
Fasciculation ([2]; 0.3 mg/kg): 0/6 (0%)
Lacrimation ([2]; 0.3 mg/kg): 0/6 (0%)
Myosis ([2]; 0.3 mg/kg): 0/6 (0%)
Salivation ([2]; 0.3 mg/kg): 0/6 (0%)
minimal diarrhea inducing dose in rats [2]: 0.1 mg/kg
EC50 [3]: > 1 µM
IP1 production in the hippocampus ([4]; M1R KO mice, 10 mg/kg p.o.): not in M1R KO mice
IP1 production in the hippocampus ([4]; wild-type mice, 10 mg/kg p.o.): significantly induced IP1 production
spontaneous ileum motility [5]: strengthened the spontaneous ileum motility in a concentration-dependent manner

EC50 [3]: > 10 µM
Compound: Cc1c(Cc2ccc(-n3cccn3)cc2)cc2c(c1F)CN([C@H]1COCC[C@@H]1O)C2=O [Compound D, 4-fluoro-2-[(3S,4S)-4-hydroxytetrahydro-2H-pyran-3-yl]-5-methyl-6-[4-(1H-pyrazol-1-yl)benzyl]-2,3-dihydro-1H-isoindol-1-one]
Diarrhea ([2]; 1 mg/kg): 0/6 (0%)
Fasciculation ([2]; 1 mg/kg): 0/6 (0%)
Lacrimation ([2]; 1 mg/kg): 0/6 (0%)
Myosis ([2]; 1 mg/kg): 0/6 (0%)
Salivation ([2]; 1 mg/kg): 0/6 (0%)
Diarrhea ([2]; 3 mg/kg): 1/6 (17%)
Fasciculation ([2]; 3 mg/kg): 0/6 (0%)
Lacrimation ([2]; 3 mg/kg): 0/6 (0%)
Myosis ([2]; 3 mg/kg): 0/6 (0%)
Salivation ([2]; 3 mg/kg): 0/6 (0%)
Diarrhea ([2]; 10 mg/kg): 5/6 (83%)
Fasciculation ([2]; 10 mg/kg): 0/6 (0%)
Lacrimation ([2]; 10 mg/kg): 0/6 (0%)
Myosis ([2]; 10 mg/kg): 0/6 (0%)
Salivation ([2]; 10 mg/kg): 0/6 (0%)
Diarrhea ([2]; 30 mg/kg): 4/6 (67%)
Fasciculation ([2]; 30 mg/kg): 0/6 (0%)
Lacrimation ([2]; 30 mg/kg): 0/6 (0%)
Myosis ([2]; 30 mg/kg): 0/6 (0%)
Salivation ([2]; 30 mg/kg): 0/6 (0%)
minimal diarrhea inducing dose in rats [2]: 10 mg/kg
IP1 production in the hippocampus ([4]; M1R KO mice, 3 mg/kg p.o.): did not induce IP1 production
IP1 production in the hippocampus ([4]; wild-type mice, 3 mg/kg p.o., 3 h, % of vehicle-treated control): 153.3±9.3%
spontaneous ileum motility [5]: lower impact on ileum motility
